Values quoted from earlier work in patent US6376468B1, “Protein:prenyl transferase inhibitors” (Nederlandse Organisatie Voor …, priority 1999, dated 2002).

Molecular target: T1, Ras farnesyl transferase from human colon carcinoma (Homo sapiens, UniProt P49354+P49356)
T1 construct: host or cells: human colon carcinoma
Settings: J. Biol. Chem. 268 (1993), 20695-98

- IC50: 60 nM
Compound: CSCCC(NC(=O)c1cccc(CNC(=O)C(N)CS)c1)C(=O)O (stereo not shown) [Cys-NH-CH2-mC6H4-CO-Met]
